Assay results as given in US5395840A, “Heterocyclically substituted phenyl-cyclohexane-carboxylic acid derivatives” (Bayer Aktiengesellschaft, priority 1993, dated 1995).
Blank lines part the entries; values can stand above or below the compound they belong to.

Key:
[1] = tested on: contractions induced by AII (isolated rabbit aorta rings); assay: Inhibition of the vascular contraction in isolated rabbit aorta rings in vitro, contractions induced by angiotensin II; assay type: cell-based; conditions: Oryctolagus cuniculus, based on the 3rd = submaximal agonist concentration, read-out: IC50 against contractions induced by: AII
Method: Rabbits of either sex are stunned by a blow to the back of the head and bled out, or in some cases anaesthetized with Nembutal (about 60-80 mg/kg i.v.) and sacrificed by opening the thorax. The thoracic aorta is removed, freed from adhering connective tissue, divided into ring segments 1.5 mm wide and individually transferred under an initial loading of about 3.5 g to 10 ml organ baths containing Krebs-Henseleit nutrient solution, aerated with 95% O2 /5% CO2 and temperature-controlled at 37° C., of the following composition: 119 mmol/l of NaCl; 2.5 mmol/l of CaCl2 ×2H2 O; 1.2 mmol/l of KH2 PO4; 10 mmol/l of glucose; 4.8 mmol/l of KCl; 1.4 mmol/l of MgSO4 ×7H2 O and 25 mmol/l of NaHCO3.
The contractions are determined isometrically by means of Statham UC2 cells via bridge amplifiers (ifd Mulheim or DSM Aalen) and digitalized by means of A/D converters (System 570, Keithley Munich) and assessed. The agonist dose response curves (DRCs) are plotted hourly. With each DRC, 3 or 4 individual concentrations are applied to the baths =at a 4 min interval. […]
The height of the 3rd DRC, in a normal case, is used as a reference quantity for the assessment of the test substance to be investigated in further runs, which substance is applied to the baths in the following DRCs in each case in increasing dose at the start of the incubation period. […]

Angiotensin II Receptor = target: T1, Angiotensin II Receptor (Bos taurus, UniProt P25104); assay: Interaction with the angiotensin II receptor in membrane fractions of the adrenal gland cortex (bovine), 3H-angiotensin II binding; conditions: 3H-angiotensin II (3-5 nM), bovine adrenal gland cortex membranes, 60 min at room temperature, pH 7.2
T1 construct: Adrenal gland cortices from cattle (AGCs), which have been freshly removed and carefully freed from gland medulla; from tissue; host or cells: bovine adrenal gland cortex, partially purified membrane fractions
T1 sequence (P25104 1-359): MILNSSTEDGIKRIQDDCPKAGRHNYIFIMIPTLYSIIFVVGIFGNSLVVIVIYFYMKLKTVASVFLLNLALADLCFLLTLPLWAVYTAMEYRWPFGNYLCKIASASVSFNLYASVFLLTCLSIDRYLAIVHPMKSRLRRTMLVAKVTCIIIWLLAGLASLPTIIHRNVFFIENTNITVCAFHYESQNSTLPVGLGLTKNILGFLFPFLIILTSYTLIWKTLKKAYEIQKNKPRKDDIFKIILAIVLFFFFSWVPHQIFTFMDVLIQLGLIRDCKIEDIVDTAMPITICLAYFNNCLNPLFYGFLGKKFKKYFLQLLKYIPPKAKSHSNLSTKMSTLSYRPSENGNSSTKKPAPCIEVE
Method: Adrenal gland cortices from cattle (AGCs), which have been freshly removed and carefully freed from gland medulla, are comminuted in sucrose solution (0.32M) with the aid of an Ultra-Turrax (Janke & Kunkel, Staufen i.B.) to give a coarse membrane homogenate and partially purified to give membrane fractions in two centrifugation steps.
The receptor binding investigations are carried out on partially purified membrane fractions of bovine AGC using radioactive angiotensin II in an assay volume of 0.25 ml, which specifically contains the partially purified membranes (50-80 μg), ^3 H-angiotensin II (3-5 nM), test buffer solution (50 mM Tris, pH 7.2, 5 mM MgCl2) and the substances to be investigated. After an incubation period of 60 min at room temperature, the unbound radioactivity of the samples is separated by means of moistened glass fiber filters (Whatman GF/C) and the bound radioactivity is measured […] in a scintillation cocktail after washing the protein with ice-cold buffer solution (50 mM Tris/HCl, pH 7.4, 5% PEG 6000). The raw data were analysed using computer programs to give Ki or IC50 values (Ki : IC50 values corrected for the radioactivity used; IC50 values: concentration at which the substance to be investigated causes a 50% inhibition of the specific binding of the radioligand).

smooth muscle cells = assay: Inhibition of the proliferation of smooth muscle cells (3H-thymidine incorporation); assay type: cell-based; conditions: rat aortic smooth muscle cells, stimulated by 10% FCS
Method: To determine the antiproliferative action of the compounds, smooth muscle cells are used which are obtained from the aortas of rats by the media explant technique [R. Ross, J. Cell. Biol. 50., 172, 1971]. The cells are inoculated into suitable culture dishes, as a rule 96-hole plates, and cultured at 37° C. in 5% CO2 for 2-3 days in medium 199 containing,7.5% FCS and 7.59% NCS, 2 mM L-glutamine and 15 mM HEPES, pH 7.4. The cells are then synchronized for 2-3 days by withdrawal of serum and then stimulated into growth using serum or other factors. Test compounds are simultaneously added. After 16-20 hours, 1 μCi ^3 H-thymidine is added and after a further 4 hours the incorporation of this substance into the TCA-precipitable DNA of the cells is determined. To determine the IC50 values, the active compound concentration is calculated which, on sequential dilution of the active compound, causes semi-maximum inhibition of the thymidine incorporation produced by 10% FCS.

- IC50 [1]: 260 nM
- Ki (Angiotensin II Receptor): 47 nM
Compound: CC(C)(C)OC(=O)[C@@H]1CCCC[C@H]1c1ccc(Cn2c(-c3ccccc3)nc3cccnc32)cc1 (relative stereo) [Example 9]

Compound: O=C(N[C@H](CO)c1ccccc1)C1CCCCC1c1ccc(Cn2c(C3CC3)nc3cccnc32)cc1 (single isomer, unassigned) [Example 16]
- IC50 (smooth muscle cells): 410 nM

Compound: O=C(N[C@H](CO)c1ccccc1)C1CCCCC1c1ccc(Cn2c(C3CC3)nc3cccnc32)cc1 (single isomer, unassigned) [Example 17]
- IC50 (smooth muscle cells): 2 nM

Compound: NC(=O)C(NC(=O)C1CCCCC1c1ccc(Cn2c(C3CC3)nc3cccnc32)cc1)c1ccccc1 (single isomer, unassigned) [Example 21]
- IC50 (smooth muscle cells; Rattus norvegicus): 7 nM

Compound: O=C(N[C@H](CO)c1ccccc1)C1CCCCC1c1ccc(Cn2c(-c3ccccc3)nc3cccnc32)cc1 (stereo partly shown) [Example 25]
- IC50 (smooth muscle cells; Rattus norvegicus): 26 nM

Compound: CCCCc1nc2cc(Br)cnc2n1Cc1ccc(C2CCCCC2C(=O)N[C@H](CO)c2ccccc2)cc1 (stereo partly shown) [Example 29]
- IC50 (smooth muscle cells; Rattus norvegicus): 4 nM

- IC50 [1]: 220 nM
- Ki (Angiotensin II Receptor): 19 nM
Compound: CCCCc1nc2ccccc2n1Cc1ccc(C2CCCCC2C(=O)N[C@H](CO)c2ccccc2)cc1 (stereo partly shown) [Example 30]

Compound: CCCCc1nc2ccccc2n1Cc1ccc(C2CCCCC2C(=O)N[C@H](CO)c2ccccc2)cc1 (stereo partly shown) [Example 31]
- IC50 (smooth muscle cells; Rattus norvegicus): 3 nM
